From patent US11247990B1, “Bicyclic fused pyridine compounds as inhibitors of TAM kinases” (ARRAY BIOPHARMA INC., priority 2017, dated 2022) come the findings set out here.

Holding throughout (conditions): averaged IC50
Assay [1] concerns the target His-tagged recombinant human AXL cytoplasmic domain (Homo sapiens (Human), UniProt P30530). Description: AXL Enzyme Assay (LanthaScreen Eu Kinase Binding, TR-FRET). Put shortly:
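LanthaScreen Eu kinase binding format, incubated 60 min at 22 °C and read by TR-FRET dual-wavelength emission ratio as percent of control. IC50 taken where a 4-parameter logistic fit crosses 50 POC.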
A general note: TR-FRET usually uses a lanthanide donor and a delayed reading to cut background.

Assay [2] has as its target His-tagged recombinant human MER cytoplasmic domain (Homo sapiens (Human), UniProt Q12866). Description: MER Enzyme Assay (LanthaScreen Eu Kinase Binding, TR-FRET). Put shortly:
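LanthaScreen Eu kinase binding (tracer displacement) assay with His-tagged human MER cytoplasmic domain, 60 min incubation at 22 °C. TR-FRET dual-wavelength emission ratio converted to percent of control; IC50 is where the 4-parameter logistic fit crosses 50 POC.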

In assay [3] the target is GST-tagged recombinant human TYRO3 kinase domain (Homo sapiens (Human), UniProt Q06418). Put plainly: TYRO3 Enzyme Assay (LanthaScreen Eu Kinase Binding, TR-FRET). Put shortly:
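LanthaScreen Eu binding (tracer displacement) format read by TR-FRET after 60 min at 22 °C. Emission ratio converted to percent of control; IC50 taken where a 4-parameter logistic fit crosses 50 POC.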

The structures appear in SMILES notation. Counter-ions that a name gives are not always drawn. Some results are limits rather than exact numbers.

GST-tagged recombinant human TYRO3 kinase domain, sequence (Q06418 518-790): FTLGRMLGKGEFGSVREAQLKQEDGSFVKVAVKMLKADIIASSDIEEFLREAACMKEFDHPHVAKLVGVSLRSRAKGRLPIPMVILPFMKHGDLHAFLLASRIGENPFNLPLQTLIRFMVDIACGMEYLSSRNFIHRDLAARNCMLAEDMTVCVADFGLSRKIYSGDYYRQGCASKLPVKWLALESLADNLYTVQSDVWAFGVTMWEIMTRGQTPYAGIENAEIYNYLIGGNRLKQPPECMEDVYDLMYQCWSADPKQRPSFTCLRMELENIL
His-tagged recombinant human MER cytoplasmic domain, sequence (Q12866 527-999): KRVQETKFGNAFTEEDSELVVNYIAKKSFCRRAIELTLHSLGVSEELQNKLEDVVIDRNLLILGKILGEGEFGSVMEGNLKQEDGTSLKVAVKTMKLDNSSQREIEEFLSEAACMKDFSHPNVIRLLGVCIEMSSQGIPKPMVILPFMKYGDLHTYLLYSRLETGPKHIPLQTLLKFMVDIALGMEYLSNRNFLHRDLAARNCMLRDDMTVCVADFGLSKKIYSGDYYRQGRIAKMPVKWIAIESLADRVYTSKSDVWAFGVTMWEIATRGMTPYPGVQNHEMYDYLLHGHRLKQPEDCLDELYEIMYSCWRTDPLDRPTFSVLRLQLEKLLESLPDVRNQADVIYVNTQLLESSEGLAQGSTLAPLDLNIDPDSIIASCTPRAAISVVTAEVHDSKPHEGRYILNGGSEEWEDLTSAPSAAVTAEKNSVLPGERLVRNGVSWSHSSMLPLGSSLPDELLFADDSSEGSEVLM
His-tagged recombinant human AXL cytoplasmic domain, sequence (P30530 473-894): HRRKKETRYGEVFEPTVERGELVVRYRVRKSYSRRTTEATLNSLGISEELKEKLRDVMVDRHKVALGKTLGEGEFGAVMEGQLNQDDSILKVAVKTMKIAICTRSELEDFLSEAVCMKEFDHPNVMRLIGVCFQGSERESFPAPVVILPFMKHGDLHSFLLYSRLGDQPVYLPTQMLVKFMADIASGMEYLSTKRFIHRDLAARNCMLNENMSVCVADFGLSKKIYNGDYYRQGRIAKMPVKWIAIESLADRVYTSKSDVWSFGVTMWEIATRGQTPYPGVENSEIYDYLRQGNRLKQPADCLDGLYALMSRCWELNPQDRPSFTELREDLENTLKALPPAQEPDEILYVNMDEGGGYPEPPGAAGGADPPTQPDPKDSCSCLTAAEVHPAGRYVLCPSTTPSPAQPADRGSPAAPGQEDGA

For orientation: IC50 means the point on the concentration scale where inhibition reaches its midpoint. For `CCNc1cc2c(cn1)c(C1=CCN(C)CC1)nn2[C@H]1CC[C@@H](Oc2nccc(C(F)(F)F)c2F)CC1` [Example 255], the results for the 50% inhibitory concentration (IC50) in assay [1], in assay [2] and in assay [3] were less than 10 nM, less than 10 nM and 10 to 100 nM, respectively.
Turning to `CCNc1cc2c(cn1)c(-c1cnn(CC(=O)NC)c1)nn2[C@H]1CC[C@@H](Oc2nccc(C(F)(F)F)c2F)CC1` [Example 258, 2-(4-(6-(ethylamino)-1-((1s,4s)-4-((3-fluoro-4-(trifluoromethyl)pyridin-2-yl)oxy)cyclohexyl)-1H-pyrazolo[4,3-c]pyridin-3-yl)-1H-pyrazol-1-yl)-N-methylacetamide], the IC50 in assay [1], in assay [2] and in assay [3] was less than 10 nM throughout.
Regarding `CCNc1cc2c(cn1)c(-c1cnn(C(C)(C)C#N)c1)nn2[C@H]1CC[C@@H](Oc2nccc(C(F)(F)F)c2F)CC1` [Example 260, 2-(4-(6-(ethylamino)-1-((1s,4s)-4-((3-fluoro-4-(trifluoromethyl)pyridin-2-yl)oxy)cyclohexyl)-1H-pyrazolo[4,3-c]pyridin-3-yl)-1H-pyrazol-1-yl)-2-methylpropanenitrile], the results for the IC50 in assay [1], in assay [2] and in assay [3] were less than 10 nM, less than 10 nM and 100 to 1000 nM, respectively.
Turning to `CCNc1cc2c(cn1)c(-c1ccc(CN3CCN(C)CC3)cc1)nn2[C@H]1CC[C@@H](Oc2nccc(C(F)(F)F)c2F)CC1` [Example 261, N-ethyl-1-((1s,4s)-4-((3-fluoro-4-(tnfluoromethyl)pyridin-2-yl)oxy)cyclohexyl)-3-(4-((4-methylpiperazin-1-yl)methyl)phenyl)-1H-pyrazolo[4,3-c]pyridin-6-amine], the IC50 in assay [1] was less than 10 nM; in assay [2] it was less than 10 nM; in assay [3], 10 to 100 nM.
As to `CNc1cc2c(cn1)c(-c1cnn(C)c1)nn2[C@H]1CC[C@@H](Oc2cnn(C)c2C(F)(F)F)CC1` [Example 262, N-methyl-3-(1-methyl-1H-pyrazol-4-yl)-1-((1s,4s)-4-((1-methyl-5-(trifluoromethyl)-1H-pyrazol-4-yl)oxy)cyclohexyl)-1H-pyrazolo[4,3-c]pyridin-6-amine], the figures for the IC50 in assay [1], in assay [2] and in assay [3] were less than 10 nM, less than 10 nM and 10 to 100 nM, respectively.
`CNc1cc2c(cn1)c(-c1cnn(C(C)(C)C#N)c1)nn2[C@H]1CC[C@@H](Oc2cnn(C)c2C(F)(F)F)CC1` [Example 263, 2-methyl-2-(4-(1-((1s,4s)-4-((1-methyl-5-(trifluoromethyl)-1H-pyrazol-4-yl)oxy)cyclohexyl)-6-(methylamino)-1H-pyrazolo[4,3-c]pyridin-3-yl)-1H-pyrazol-1-yl)propanenitrile]: the IC50 in assay [1] was less than 10 nM; in assay [2] it was less than 10 nM; in assay [3], 100 to 1000 nM.
As to `CNc1cc2c(cn1)c(-c1ccc(CN3CCN(C)CC3)cc1)nn2[C@H]1CC[C@@H](Oc2cnn(C)c2C(F)(F)F)CC1` [Example 264, N-methyl-1-((1s,4s)-4-((1-methyl-5-(trifluoromethyl)-1H-pyrazol-4-yl)oxy)cyclohexyl)-3-(4-((4-methylpiperazin-1-yl)methyl)phenyl)-1H-pyrazolo[4,3-c]pyridin-6-amine], the IC50 in assay [1] is less than 10 nM; in assay [2], less than 10 nM; in assay [3], 10 to 100 nM.
Consider `CCNc1cc2c(cn1)c(-c1cnn(CC(C)(C)CO)c1)nn2[C@H]1CC[C@@H](Oc2nccc(C(F)(F)F)c2F)CC1` [Example 271, 3-(4-(6-(ethylamino)-1-((1s,4s)-4-((3-fluoro-4-(trifluoromethyl)pyridin-2-yl)oxy)cyclohexyl)-1H-pyrazolo[4,3-c]pyridin-3-yl)-1H-pyrazol-1-yl)-2,2-dimethylpropan-1-ol hydrochloride], for which the figures for the IC50 in assay [1], in assay [2] and in assay [3] were less than 10 nM, less than 10 nM and 10 to 100 nM, respectively.
As for `CCNc1cc2c(cn1)c(-c1cnn([C@H]3CC[C@H](O)CC3)c1)nn2[C@H]1CC[C@@H](Oc2nccc(C(F)(F)F)c2F)CC1` [Example 272, (1R,4r)-4-(4-(6-(ethylamino)-1-((1s,4S)-4-((3-fluoro-4-(trifluoromethyl)pyridin-2-yl)oxy)cyclohexyl)-1H-pyrazolo[4,3-c]pyridin-3-yl)-1H-pyrazol-1-yl)cyclohexan-1-ol], the IC50 in assay [1] was less than 10 nM; in assay [2] it was less than 10 nM; in assay [3] it was 10 to 100 nM.
Regarding `CCNc1cc2c(cn1)c(-c1cnn(C)c1)nn2[C@H]1CC[C@@H](Oc2cn(C)nc2C(F)(F)F)CC1` [Example 279, N-ethyl-3-(1-methyl-1H-pyrazol-4-yl)-1-((1s,4s)-4-((1-methyl-3-(trifluoromethyl)-1H-pyrazol-4-yl)oxy)cyclohexyl)-1H-pyrazolo[4,3-c]pyridin-6-amine], the half-maximal inhibitory concentration (IC50) in assay [1], in assay [2] and in assay [3] was less than 10 nM throughout.
`CCNc1cc2c(cn1)c(-c1cnn(C(C)(C)C#N)c1)nn2[C@H]1CC[C@@H](Oc2cn(C)nc2C(F)(F)F)CC1` [Example 280, 2-(4-(6-(ethylamino)-1-((1s,4s)-4-((1-methyl-3-(trifluoromethyl)-1H-pyrazol-4-yl)oxy)cyclohexyl)-1H-pyrazolo[4,3-c]pyridin-3-yl)-1H-pyrazol-1-yl)-2-methylpropanenitrile]: the half-maximal inhibitory concentration (IC50) in assay [1], in assay [2] and in assay [3] was less than 10 nM in each case.
Consider `CCNc1cc2c(cn1)c(-c1cnn(C[C@@H](O)CO)c1)nn2[C@H]1CC[C@@H](Oc2cn(C)nc2C(F)(F)F)CC1` [Example 283, ®-3-(4-(6-(ethylamino)-1-((1s,4S)-4-((1-methyl-3-(trifluoromethyl)-1H-pyrazol-4-yl)oxy)cyclohexyl)-1H-pyrazolo[4,3-c]pyridin-3-yl)-1H-pyrazol-1-yl)propane-1,2-diol], for which the IC50 in assay [1], in assay [2] and in assay [3] was less than 10 nM in each case.
With `CNc1cc2c(cn1)c(-c1ccc(S(C)(=O)=O)cc1)nn2[C@H]1CC[C@@H](Oc2cn(C)nc2C(F)(F)F)CC1` [Example 284, N-methyl-1-((1s,4s)-4-((1-methyl-3-(trifluoromethyl)-1H-pyrazol-4-yl)oxy)cyclohexyl)-3-(4-(methylsulfonyl)phenyl)-1H-pyrazolo[4,3-c]pyridin-6-amine], the IC50 in assay [1], in assay [2] and in assay [3] was less than 10 nM each time.
`CNc1cc2c(cn1)c(-c1ccc(CN3CCN(C)CC3)cc1)nn2[C@H]1CC[C@@H](Oc2cn(C)nc2C(F)(F)F)CC1` [Example 285, N-methyl-1-((1s,4s)-4-((1-methyl-3-(trifluoromethyl)-1H-pyrazol-4-yl)oxy)cyclohexyl)-3-(4-((4-methylpiperazin-1-yl)methyl)phenyl)-1H-pyrazolo[4,3-c]pyridin-6-amine]: the half-inhibitory concentration (IC50) in assay [1], in assay [2] and in assay [3] was less than 10 nM in each case.
With `CNc1cc2c(cn1)c(-c1ccc3c(c1)CN(C)C3=O)nn2[C@H]1CC[C@@H](Oc2cn(C)nc2C(F)(F)F)CC1` [Example 286, 2-methyl-5-(1-((1s,4s)-4-((1-methyl-3-(trifluoromethyl)-1H-pyrazol-4-yl)oxy)cyclohexyl)-6-(methylamino)-1H-pyrazolo[4,3-c]pyridin-3-yl)isoindolin-1-one], the concentration for half-maximal inhibition (IC50) in assay [1], in assay [2] and in assay [3] was less than 10 nM in each case.
With `CCNc1cc2c(cn1)c(-c1ccc3c(c1)CNC3=O)nn2[C@H]1CC[C@@H](Oc2cn(C)nc2C(F)(F)F)CC1` [Example 287], the half-maximal inhibitory concentration (IC50) in assay [1], in assay [2] and in assay [3] was less than 10 nM throughout.
For the compound `CCNc1cc2c(cn1)c(-c1ccc3c(c1)CN(C)C3=O)nn2[C@H]1CC[C@@H](Oc2cn(C)nc2C(F)(F)F)CC1` [Example 288, 5-(6-(ethylamino)-1-((1s,4s)-4((1-methyl-3-(trifluoromethyl)-1H-pyrazol-4-yl)oxy)cyclohexyl)-1H-pyrazolo[4,3-c]pyridin-3-yl)-2-methylisoindolin-1-one], the IC50 in assay [1], in assay [2] and in assay [3] was less than 10 nM throughout.
Take `CCNc1cc2c(cn1)c(-c1ccc(CN3CCN(C)CC3)cc1)nn2[C@H]1CC[C@@H](Oc2cn(C)nc2C(F)(F)F)CC1` [Example 289, N-ethyl-1-((1s,4s)-4-((1-methyl-3-(trifluoromethyl)-1H-pyrazol-4-yl)oxy)cyclohexyl)-3-(4-((4-methylpiperazin-1-yl)methyl)phenyl)-1H-pyrazolo[4,3-c]pyridin-6-amine]: the concentration for half-maximal inhibition (IC50) in assay [1], in assay [2] and in assay [3] was less than 10 nM each time.
Consider `CCNc1cc2c(cn1)c(-c1ccc(S(C)(=O)=O)cc1)nn2[C@H]1CC[C@@H](Oc2cn(C)nc2C(F)(F)F)CC1` [Example 290, N-ethyl-1-((1s,4s)-4-((1-methyl-3-(trifluoromethyl)-1H-pyrazol-4-yl)oxy)cyclohexyl)-3-(4-(methylsulfonyl)phenyl)-1H-pyrazolo[4,3-c]pyridin-6-amine], for which the IC50 in assay [1], in assay [2] and in assay [3] was less than 10 nM each time.
Take `CCNc1cc2c(cn1)c(-c1ccc(CN3CCN(C)CC3)cc1)nn2[C@H]1CC[C@@H](Oc2cnn(C)c2C(F)(F)F)CC1` [Example 293, N-ethyl-1-((1s,4s)-4-((1-methyl-5-(trifluoromethyl)-1H-pyrazol-4-yl)oxy)cyclohexyl)-3-(4-((4-methylpiperazin-1-yl)methyl)phenyl)-1H-pyrazolo[4,3-c]pyridin-6-amine]: the IC50 in assay [1] was less than 10 nM; in assay [2], less than 10 nM; in assay [3], 10 to 100 nM.
